Four compounds from patent US10208034B2, “Quinoline derivative” (ONO PHARMACEUTICAL CO., LTD., priority 2014, dated 2019) can be followed below.

Experiment [1] has as its target T1, Axl enzyme (Homo sapiens, UniProt P30530).
T1 sequence (P30530 26-894): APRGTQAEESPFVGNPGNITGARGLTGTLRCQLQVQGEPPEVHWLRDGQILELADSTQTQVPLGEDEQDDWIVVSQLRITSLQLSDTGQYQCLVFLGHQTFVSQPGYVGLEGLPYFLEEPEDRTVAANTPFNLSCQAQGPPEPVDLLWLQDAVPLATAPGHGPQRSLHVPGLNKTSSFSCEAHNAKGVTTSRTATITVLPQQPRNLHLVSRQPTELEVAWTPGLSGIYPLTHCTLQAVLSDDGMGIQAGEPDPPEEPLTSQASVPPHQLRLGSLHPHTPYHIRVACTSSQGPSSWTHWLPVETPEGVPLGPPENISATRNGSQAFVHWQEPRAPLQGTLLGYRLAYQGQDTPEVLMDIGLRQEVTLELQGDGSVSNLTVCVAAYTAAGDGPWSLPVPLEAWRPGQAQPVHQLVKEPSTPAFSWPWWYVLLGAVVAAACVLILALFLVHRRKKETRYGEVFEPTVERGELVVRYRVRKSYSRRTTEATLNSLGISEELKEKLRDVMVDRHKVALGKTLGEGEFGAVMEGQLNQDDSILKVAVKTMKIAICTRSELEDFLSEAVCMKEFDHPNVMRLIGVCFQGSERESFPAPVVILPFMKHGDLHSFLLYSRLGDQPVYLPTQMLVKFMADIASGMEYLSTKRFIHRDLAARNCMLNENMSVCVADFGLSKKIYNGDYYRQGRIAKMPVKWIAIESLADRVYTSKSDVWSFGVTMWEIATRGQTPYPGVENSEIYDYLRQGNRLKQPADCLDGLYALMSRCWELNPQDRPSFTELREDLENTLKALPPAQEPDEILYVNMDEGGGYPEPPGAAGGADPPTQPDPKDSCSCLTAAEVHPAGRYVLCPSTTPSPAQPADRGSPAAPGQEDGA
Nature of the experiment: Measurement of Axl inhibitory activity (LanthaScreen TR-FRET, in vitro test). The experiment is classed as biochemical. To be noted: Fluorescein-Poly GT substrate. Here is the method: Axl enzyme inhibitory activity was measured by using LanthaScreen (registered trademark) system (Invitrogen) based on the attached instruction. The reagents used are shown below.
Reaction buffer solution: a solution containing 50 mmol/L HEPES (pH7.5), 0.01% Brij35, 10 mmol/L MgCl2 and 1 mmol/L EGTA was prepared by using purified water.
Test substance solution: a solution containing a test compound of 5-fold concentration with respect to the final concentration was prepared by 20-fold diluting a DMSO solution of test compound of each concentration with the reaction buffer solution.
Enzyme solution: a solution containing 400 ng/mL Axl enzyme was prepared by using the reaction buffer solution.
Substrate solution: a solution containing 45 μmol/L ATP and 500 nmol/L Fluorescein-Poly GT (Invitrogen) was prepared by using the reaction buffer solution.
Detection solution: a solution containing 20 mM EDTA and 4 nM PY20 (Invitrogen) was prepared by using Dilution B (Invitrogen).
A 10 mmol/L DMSO solution of the test compound was dispensed into a 96-well plate (Nunc), and, furthermore, a 3-fold dilution series was prepared using DMSO. In each well of the 96-well plate for measurement, 5 μL each of the reaction buffer solution containing DMSO was added to a Blank group and a medium group, and 5 μL of the test substance solution was added to the test substance group, respectively. Next, 10 μL/well of the reaction buffer solution was added to the Blank group, and 10 μL/well each of the enzyme solution was added to the medium group and the test compound group, followed by stirring at room temperature for 10 min. After the completion of stirring, 10 μL each of the substrate solution was added into each well, followed by stirring at room temperature with light shielded for one hour. After the completion of reaction, 25 μL each of the detection solution was added to each well, and stood still at room temperature with light shielded for 30 min. After standing sill, fluorescence intensity at 520 nm and 495 nm at the time of irradiation with exciting light of 340 nm was measured by using Analyst GT (Molecular Devices). The phosphorylation of the artificial substrate was quantified by Time-resolved Fluorescence Resonance Energy Transfer (TR-FRET). TR-FRET ratio was calculated by dividing 520 nm fluorescence signal by 495 nm fluorescence signal for each well, and the inhibition rate (%) in the test compound group was calculated based on the following mathematical formula. Inhibition rate (%)=[1−(TR-FRET ratio of test compound group−A)/(B−A)×100 [Math. 1] A: average value of TR-FRET ratios of Blank group B: average value of TR-FRET ratios of medium group
Values of 50% inhibition rate (IC50 values) of the test compound were calculated from the inhibition curve based on the inhibition rate of the test compounds in each concentration.
(In general: In TR-FRET formats the signal depends on donor and acceptor labels being close together.)

Experiment [2] deals with KDR kinase (Homo sapiens, UniProt P35968). The experiment can be described thus: Evaluation of kinase selectivity (KDR kinase IC50 versus Axl IC50, in vitro test). Particulars: Axl selective inhibitory activity with respect to KDR kinase, ratio of IC50 values. Type of experiment: biochemical. Here is the method: Similar to Biological Example 1, values of 50% inhibition rate (IC50 value) with respect to the KDR kinase of the test compound was measured. The Axl selective inhibitory activity of the test compound with respect to KDR kinase was calculated based on the above-mentioned ratio of the IC50 values. As the test compounds, for the compounds of the present invention, the compounds of Examples 21, 42, 66, and 28 were used, and for the comparative compounds, the compound of Example 74 (Comparative compound B) and the compound of Example 92 (Comparative compound C) described in Patent Literature 5, having the following structure, were used.
Sequence of KDR kinase (P35968 20-1356): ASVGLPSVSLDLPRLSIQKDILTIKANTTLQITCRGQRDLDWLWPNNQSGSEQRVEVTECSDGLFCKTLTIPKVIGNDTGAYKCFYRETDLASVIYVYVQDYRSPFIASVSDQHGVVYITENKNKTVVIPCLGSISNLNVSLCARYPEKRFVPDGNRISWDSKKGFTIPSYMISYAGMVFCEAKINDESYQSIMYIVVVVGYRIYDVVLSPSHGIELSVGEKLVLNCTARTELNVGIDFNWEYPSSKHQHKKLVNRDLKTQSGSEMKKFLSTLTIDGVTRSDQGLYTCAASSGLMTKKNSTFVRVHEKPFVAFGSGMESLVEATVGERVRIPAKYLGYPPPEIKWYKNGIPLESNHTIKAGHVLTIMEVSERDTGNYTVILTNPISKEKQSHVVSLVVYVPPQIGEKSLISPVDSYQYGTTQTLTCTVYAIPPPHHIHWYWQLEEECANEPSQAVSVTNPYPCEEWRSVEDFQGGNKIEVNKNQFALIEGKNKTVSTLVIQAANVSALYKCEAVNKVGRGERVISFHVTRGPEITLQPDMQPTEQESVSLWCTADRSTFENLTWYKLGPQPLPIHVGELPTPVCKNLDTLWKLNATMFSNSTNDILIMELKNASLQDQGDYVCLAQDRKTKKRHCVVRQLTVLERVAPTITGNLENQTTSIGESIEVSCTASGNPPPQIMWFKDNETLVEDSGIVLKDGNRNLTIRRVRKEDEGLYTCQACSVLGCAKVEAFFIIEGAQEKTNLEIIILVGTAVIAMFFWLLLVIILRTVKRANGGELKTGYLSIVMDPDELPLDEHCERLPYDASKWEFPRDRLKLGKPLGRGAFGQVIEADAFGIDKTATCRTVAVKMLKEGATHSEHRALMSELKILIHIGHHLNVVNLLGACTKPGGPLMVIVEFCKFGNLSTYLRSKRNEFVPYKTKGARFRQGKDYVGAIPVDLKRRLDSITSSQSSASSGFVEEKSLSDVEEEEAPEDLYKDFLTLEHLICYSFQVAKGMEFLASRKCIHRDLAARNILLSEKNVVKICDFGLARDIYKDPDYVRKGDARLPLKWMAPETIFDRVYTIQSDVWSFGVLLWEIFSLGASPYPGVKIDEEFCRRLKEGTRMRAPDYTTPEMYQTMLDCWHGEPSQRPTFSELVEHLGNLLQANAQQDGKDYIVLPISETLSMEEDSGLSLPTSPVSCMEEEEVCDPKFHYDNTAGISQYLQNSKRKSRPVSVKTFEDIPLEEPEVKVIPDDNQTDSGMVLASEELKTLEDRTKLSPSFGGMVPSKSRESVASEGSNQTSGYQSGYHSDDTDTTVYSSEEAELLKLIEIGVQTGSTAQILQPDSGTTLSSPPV

As a reminder, the IC50 is the concentration that gives 50% inhibition. As for `COc1cc2nccc(Oc3ccc(NC(=O)c4cc(C(C)=O)cn(-c5ccccc5)c4=O)nc3)c2cc1OC` [Example 21, 5-acetyl-N-{5-[(6,7-dimethoxy-4-quinolinyl)oxy]-2-pyridinyl}-2-oxo-1-phenyl-1,2-dihydro-3-pyridinecarboxamide], in experiment [1], half-maximal inhibition (IC50) was put at 1.5 nM. Also, the “KDR [IC50]/Ax1 [IC50]” value in experiment [2] is recorded as “about 149 times”.
The like results for `COc1cc2nccc(Oc3ccc(NC(=O)c4cc5ccncc5n(-c5ccccc5)c4=O)nc3)c2cc1OC` [Example 28, N-{5-[(6,7-dimethoxy-4-quinolinyl)oxy]-2-pyridinyl}-2-oxo-1-phenyl-1,2-dihydro-1,7-naphthyridine-3-carboxamide] were, in that order, 1.3 nM and “about 294 times”.
Consider `COc1cc2nccc(Oc3ccc(NC(=O)c4c5c(cn(-c6ccccc6)c4=O)C(=O)CCC5)nc3)c2cc1OC` [Example 42, N-{5-[(6,7-dimethoxy-4-quinolinyl)oxy]-2-pyridinyl}-3,8-dioxo-2-phenyl-2,3,5,6,7,8-hexahydro-4-isoquinolinecarboxamide], for which, in experiment [1], the IC50 amounted to 3.5 nM. Besides, the “KDR [IC50]/Ax1 [IC50]” value in experiment [2] is “about 2857 times”.
The like results for `COc1cc2nccc(Oc3ccc(NC(=O)c4cc5c(n(-c6ccccc6)c4=O)CCCNC5=O)nc3)c2cc1OC` [Example 66, N-{5-[(6,7-dimethoxy-4-quinolinyl)oxy]-2-pyridinyl}-2,5-dioxo-1-phenyl-2,5,6,7,8,9-hexahydro-1H-pyrido[3,2-c]azepine-3-carboxamide] were, in that order, 1.5 nM and “about 1401 times”.
